Patent US8962842B2, “2-pyridone antimicrobial compositions” (priority 2010, dated 2015)
Read-outs that look alike come from different tables or passages of the source.

Tests used:
physchem = type: physicochemical; conditions: thermodynamic from solid
Protocol: The solutions were incubated at room temperature for 24 hours before quantification by HPLC detection. Aqueous solubility was evaluated in simulated gastric fluid (SGF), simulated intestinal fluid (SIF) and phosphate buffer saline (PBS) pH 7.4. Aqueous solubility is expressed in Table 11 as mean solubility in μM.

[1] = system: Enterococcus faecalis (5 strains); test: MIC range, broader panel of Quotient Bioresearch strains (Table 3)
[2] = system: Enterococcus faecium (3 strains); test: as above
[3] = system: Escherichia coli (6 strains); test: MIC range, broader panel of Quotient Bioresearch strains (Table 4); type: cell-based
[4] = system: Burkholderia cepacia (5 strains); test: as above; type: cell-based
[5] = system: Group C Streptococcus (4 strains); test: MIC range, broader panel of Quotient Bioresearch strains (Table 3)
bacterial gyrase = bacterial gyrase (Escherichia coli, UniProt P0AES4+P0AES6); test: Inhibition of topoisomerases activity in vitro, Topogen protocol TG1003 (Table 7); type: biochemical
[6] = system: Staphylococcus aureus, quinolone-resistant strains (Quotient Bioresearch catalogue); test: MIC against pathogens resistant against quinolones (Table 5); conditions: strain GP82, Staphylococcus aureus levofloxacin-resistant clinical isolate, amino acid changes GrlA, GrlB & GyrA
[7] = system: Pseudomonas aeruginosa (12 strains); test: MIC range, broader panel of Quotient Bioresearch strains (Table 4); type: cell-based
[8] = system: Klebsiella pneumonia (4 strains); test: as above; type: cell-based; conditions: Klebsiella pneumoniae
[9] = biological target: bacterial topoisomerase IV (Escherichia coli, UniProt P0AFI2+P20083); test: Inhibition of topoisomerases activity in vitro, Topogen protocol TG1007 (Table 7); type: biochemical
[10] = system: Acinetobacter baumannii, quinolone-resistant strains (Quotient Bioresearch catalogue); test: MIC against pathogens resistant against quinolones (Table 5); type: cell-based; conditions: Acinetobacter baumannii, GN54
human topoisomerase I = biological target: T1, human topoisomerase I (Homo sapiens, UniProt P11387); test: Inhibition of topoisomerases activity in vitro, Topogen protocol TG1015 (Table 7); type: biochemical; conditions: read-out: IC50 hTopo I Assay
T1 construct: purchased Topogen Inc., Port Orange, USA TG1015
T1 sequence (P11387 1-765): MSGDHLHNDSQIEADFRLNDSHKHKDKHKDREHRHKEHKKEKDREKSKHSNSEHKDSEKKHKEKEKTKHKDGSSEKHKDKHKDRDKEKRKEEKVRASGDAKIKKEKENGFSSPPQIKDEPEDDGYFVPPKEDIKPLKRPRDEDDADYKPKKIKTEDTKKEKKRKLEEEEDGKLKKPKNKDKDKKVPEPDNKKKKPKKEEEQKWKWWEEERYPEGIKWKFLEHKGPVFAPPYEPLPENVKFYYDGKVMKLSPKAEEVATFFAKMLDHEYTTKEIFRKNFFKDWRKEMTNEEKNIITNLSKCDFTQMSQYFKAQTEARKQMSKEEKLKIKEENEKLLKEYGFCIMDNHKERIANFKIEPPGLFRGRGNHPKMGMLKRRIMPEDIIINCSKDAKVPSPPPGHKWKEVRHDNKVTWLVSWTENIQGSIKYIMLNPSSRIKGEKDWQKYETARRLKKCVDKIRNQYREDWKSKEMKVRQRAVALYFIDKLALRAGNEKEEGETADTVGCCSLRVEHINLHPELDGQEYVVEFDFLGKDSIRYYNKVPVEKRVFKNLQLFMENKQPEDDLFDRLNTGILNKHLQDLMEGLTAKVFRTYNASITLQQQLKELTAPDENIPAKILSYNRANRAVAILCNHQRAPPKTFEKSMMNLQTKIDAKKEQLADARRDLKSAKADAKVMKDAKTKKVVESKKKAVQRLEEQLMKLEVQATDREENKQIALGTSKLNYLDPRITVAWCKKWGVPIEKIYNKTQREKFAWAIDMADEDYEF

[11] = system: Streptococcus pneumonia (5 strains); test: MIC range, broader panel of Quotient Bioresearch strains (Table 3); conditions: Streptococcus pneumoniae
[12] = Metabolic stability in liver microsomes +/- S9 fraction (Table 8); type: in vitro ADME; conditions: 1 μM
Protocol: Metabolic stability of a select number of examples was tested in liver microsomes+/−addition of S9 fraction as described by Kuhnz, W. and Gieschen, H. (1998), Drug Metab. Dispos., 1120-1127. Test concentration was 1 μM and HPLC/MS-MS was used for detection.

[13] = system: Acinetobacter baumannii (12 strains); test: MIC range, broader panel of Quotient Bioresearch strains (Table 4); type: cell-based
[14] = system: Staphylococcus aureus (16 strains); test: MIC range, broader panel of Quotient Bioresearch strains (Table 3)
[15] = system: Streptococcus pyogenes (4 strains); test: as above

Chain of bacterial topoisomerase IV (P20083 whole entry): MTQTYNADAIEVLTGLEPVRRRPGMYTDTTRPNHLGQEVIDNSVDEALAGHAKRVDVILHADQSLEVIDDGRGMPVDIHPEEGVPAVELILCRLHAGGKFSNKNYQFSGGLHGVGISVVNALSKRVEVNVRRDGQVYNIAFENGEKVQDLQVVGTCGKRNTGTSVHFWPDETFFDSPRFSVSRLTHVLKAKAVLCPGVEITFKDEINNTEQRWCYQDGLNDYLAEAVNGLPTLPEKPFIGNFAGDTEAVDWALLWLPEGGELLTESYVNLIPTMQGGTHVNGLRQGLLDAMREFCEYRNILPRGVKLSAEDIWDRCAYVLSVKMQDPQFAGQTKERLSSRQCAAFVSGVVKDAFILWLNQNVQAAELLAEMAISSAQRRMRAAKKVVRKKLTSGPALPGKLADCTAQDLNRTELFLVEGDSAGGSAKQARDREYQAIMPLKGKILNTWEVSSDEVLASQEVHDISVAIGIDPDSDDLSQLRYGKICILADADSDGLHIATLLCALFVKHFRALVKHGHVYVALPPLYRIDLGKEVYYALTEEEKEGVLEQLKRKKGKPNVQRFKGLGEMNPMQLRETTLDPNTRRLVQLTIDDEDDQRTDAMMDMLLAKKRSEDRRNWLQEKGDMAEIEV
Chain of bacterial topoisomerase IV (P0AFI2 whole entry): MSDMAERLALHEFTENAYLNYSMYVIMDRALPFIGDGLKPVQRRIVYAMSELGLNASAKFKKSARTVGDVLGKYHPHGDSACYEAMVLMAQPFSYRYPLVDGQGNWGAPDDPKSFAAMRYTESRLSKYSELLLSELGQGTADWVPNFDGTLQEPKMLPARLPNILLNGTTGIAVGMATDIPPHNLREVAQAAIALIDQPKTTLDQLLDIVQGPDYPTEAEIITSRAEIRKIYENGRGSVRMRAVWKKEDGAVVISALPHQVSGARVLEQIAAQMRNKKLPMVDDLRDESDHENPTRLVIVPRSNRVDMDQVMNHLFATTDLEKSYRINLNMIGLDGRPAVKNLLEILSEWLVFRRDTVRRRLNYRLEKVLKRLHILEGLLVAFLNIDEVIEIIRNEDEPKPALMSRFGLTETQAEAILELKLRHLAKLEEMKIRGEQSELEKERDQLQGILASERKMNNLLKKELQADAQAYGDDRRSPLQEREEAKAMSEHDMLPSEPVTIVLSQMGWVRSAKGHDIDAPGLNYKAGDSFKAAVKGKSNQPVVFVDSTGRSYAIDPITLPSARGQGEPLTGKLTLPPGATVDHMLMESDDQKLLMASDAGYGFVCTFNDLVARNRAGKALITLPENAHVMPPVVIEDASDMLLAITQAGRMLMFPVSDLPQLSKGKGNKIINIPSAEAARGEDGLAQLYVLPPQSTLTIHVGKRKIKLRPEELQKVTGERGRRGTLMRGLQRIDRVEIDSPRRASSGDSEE
Chain of bacterial gyrase (P0AES4 whole entry, one chain of several): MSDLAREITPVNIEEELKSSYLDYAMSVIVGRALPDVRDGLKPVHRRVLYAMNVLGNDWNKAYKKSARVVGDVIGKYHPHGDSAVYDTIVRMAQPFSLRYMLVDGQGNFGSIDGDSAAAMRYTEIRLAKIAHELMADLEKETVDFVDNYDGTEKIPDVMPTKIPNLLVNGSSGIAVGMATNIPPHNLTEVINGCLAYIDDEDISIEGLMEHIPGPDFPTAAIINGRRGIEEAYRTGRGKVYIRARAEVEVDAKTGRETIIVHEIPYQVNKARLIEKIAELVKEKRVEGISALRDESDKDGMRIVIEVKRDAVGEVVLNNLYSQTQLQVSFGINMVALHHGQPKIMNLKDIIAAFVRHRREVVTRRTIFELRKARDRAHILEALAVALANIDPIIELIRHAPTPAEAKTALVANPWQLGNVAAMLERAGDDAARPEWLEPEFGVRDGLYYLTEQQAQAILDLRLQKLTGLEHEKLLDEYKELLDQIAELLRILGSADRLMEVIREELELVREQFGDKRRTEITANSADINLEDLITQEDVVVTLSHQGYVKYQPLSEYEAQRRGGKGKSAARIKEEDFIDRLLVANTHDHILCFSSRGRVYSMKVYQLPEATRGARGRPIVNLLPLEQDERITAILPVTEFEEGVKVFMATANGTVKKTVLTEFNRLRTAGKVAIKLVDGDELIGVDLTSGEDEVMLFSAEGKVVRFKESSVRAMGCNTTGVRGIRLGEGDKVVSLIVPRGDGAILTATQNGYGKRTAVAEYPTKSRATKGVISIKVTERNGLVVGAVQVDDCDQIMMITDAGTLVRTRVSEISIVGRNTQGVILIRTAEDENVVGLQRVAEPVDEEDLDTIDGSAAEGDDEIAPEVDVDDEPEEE

What does the source list for `Cc1c(-c2ccc3[nH]ncc3c2)ccn2c(=O)c(C(=O)[O-])cc(C3CC3)c12.[K+]` [Example 23 K salt, potassium 1-cyclopropyl-8-(1H-indazol-5-yl)-9-methyl-4-oxo-4H-quinolizine-3-carboxylate]?
solubility at 24 h (physchem; fassgf or other biorelevant): 105 µM; solubility at 24 h (physchem; pH 7.4, aqueous buffer): 37 µM; solubility at 24 h (physchem; simulated gastric fluid): 8 µM; MIC ([1]; read-out: MIC Range Low, Enterococcus faecalis (5 strains)): ≤ 0.015 µg/mL; MIC50 ([1]; read-out: MIC Range Median, Enterococcus faecalis (5 strains)): ≤ 0.015 µg/mL; MIC ([2]; read-out: MIC Range Low, Enterococcus faecium (3 strains)): 0.06 µg/mL; MIC50 ([2]; read-out: MIC Range Median, Enterococcus faecium (3 strains)): 0.25 µg/mL; MIC ([3]; read-out: MIC Range High, Escherichia coli (6 strains)): 16 µg/mL; MIC ([3]; read-out: MIC Range Low, Escherichia coli (6 strains)): ≤ 0.015 µg/mL; MIC50 ([3]; read-out: MIC Range Median, Escherichia coli (6 strains)): 4 µg/mL; MIC ([4]; read-out: MIC Range High, Burkholderia cepacia (5 strains)): 0.25 µg/mL; MIC ([4]; read-out: MIC Range Low, Burkholderia cepacia (5 strains)): ≤ 0.015 µg/mL; MIC50 ([4]; read-out: MIC Range Median, Burkholderia cepacia (5 strains)): 0.06 µg/mL; MIC ([5]; read-out: MIC Range High, Group C Streptococcus (4 strains)): 0.03 µg/mL; MIC ([5]; read-out: MIC Range Low, Group C Streptococcus (4 strains)): ≤ 0.015 µg/mL; MIC50 ([5]; read-out: MIC Range Median, Group C Streptococcus (4 strains)): ≤ 0.015 µg/mL; IC50 (bacterial gyrase): ≤ 1.39 µM; MIC [6]: ≤ 0.015 µg/mL; MIC ([7]; read-out: MIC Range High, Pseudomonas aeruginosa (12 strains)): 16 µg/mL; MIC ([7]; read-out: MIC Range Low, Pseudomonas aeruginosa (12 strains)): 0.25 µg/mL; MIC50 ([7]; read-out: MIC Range Median, Pseudomonas aeruginosa (12 strains)): 2 µg/mL; MIC ([8]; read-out: MIC Range High, Klebsiella pneumonia (4 strains)): 16 µg/mL; MIC ([8]; read-out: MIC Range Low, Klebsiella pneumonia (4 strains)): 0.06 µg/mL; MIC50 ([8]; read-out: MIC Range Median, Klebsiella pneumonia (4 strains)): 5 µg/mL; IC50 [9]: 4.34 µM; MIC [10]: 1 µg/mL; IC50 (human topoisomerase I): > 140 µM; MIC ([11]; read-out: MIC Range Low, Streptococcus pneumonia (5 strains)): ≤ 0.015 µg/mL; MIC50 ([11]; read-out: MIC Range Median, Streptococcus pneumonia (5 strains)): 0.03 µg/mL; Mean Parent Remaining ([12]; Liver microsomes + S9, human): 80%; Mean Parent Remaining ([12]; Liver microsomes + S9, mouse): 2%; Mean Parent Remaining ([12]; Liver microsomes, human): 67%; Mean Parent Remaining ([12]; Liver microsomes, mouse): 2%; MIC ([13]; read-out: MIC Range High, Acinetobacter baumannii (12 strains)): 8 µg/mL; MIC ([13]; read-out: MIC Range Low, Acinetobacter baumannii (12 strains)): 0.03 µg/mL; MIC50 ([13]; read-out: MIC Range Median, Acinetobacter baumannii (12 strains)): 3 µg/mL; MIC ([14]; read-out: MIC Range High, Staphylococcus aureus (16 strains)): 0.12 µg/mL; MIC50 ([14]; read-out: MIC Range Median, Staphylococcus aureus (16 strains)): 0.03 µg/mL; MIC ([15]; read-out: MIC Range High, Streptococcus pyogenes (4 strains)): 0.03 µg/mL; MIC ([15]; read-out: MIC Range Low, Streptococcus pyogenes (4 strains)): ≤ 0.015 µg/mL; MIC50 ([15]; read-out: MIC Range Median, Streptococcus pyogenes (4 strains)): 0.03 µg/mL
